Test results reported in PubChem BioAssay AID489010 (Southern Research Specialized Biocontainment Screening …, 2010).
Active and inactive are the calls of the source. How the calls were made is not given here.

test: M. tuberculosis H37Rv growth inhibition, dose response, strain H37Rv (AID 489010); conditions: M. tuberculosis H37Rv growth inhibition; at 100 µM (top of the series)

Structure (SMILES)	growth inhibition
O=C(Cc1cc(=O)[nH][nH]1)N/N=C/c1c(F)cccc1Cl	1.68% (inactive)
Fc1ccc(Nc2nc(Oc3ccccc3F)nc(N3CCCC3)n2)cc1	-4.07% (inactive)
O=C1CC(CSc2ccc(Cl)cc2)=NN1	-0.64% (inactive)
CC(=O)N(C1CC(C)C(C#N)(C#N)C1(C#N)C#N)N(C)C (stereo not given)	-7.63% (inactive)
Cc1ccc(-c2[nH]nc3c2C(c2ccc(OC(=O)N4CCOCC4)cc2)C(C#N)=C(N)O3)cc1 (stereo not given)	3.59% (inactive)
COC(=O)C(C#N)C(c1cccnc1)c1c(C)[nH][nH]c1=O (stereo not given)	-0.4% (inactive)
CCCCc1ccc(NC(=O)CSCc2cc(=O)[nH][nH]2)cc1	-4.95% (inactive)
COc1ccc(/C=C2/C(=O)N(c3ccccc3)N=C2C)c(OC)c1	4.59% (inactive)
O=C(CSCc1cc(=O)[nH][nH]1)Nc1ccc(F)cc1	0.76% (inactive)
CCOC(=O)C1CCN(C(=O)c2c(C)oc3c2C(=O)c2ccccc2C3=O)CC1	27.9% (inactive)
O=C1NC2=C(CCc3ccccc32)C(c2ccccc2)N1 (stereo not given)	1.42% (inactive)
N#Cc1ccc(-n2c(-c3ccccc3)nnc2-c2ccccc2)cc1C#N	6.39% (inactive)
COc1ccc(-c2[nH]nc3c2C(c2ccoc2)C(C#N)=C(N)O3)cc1 (stereo not given)	-0.09% (inactive)
CC(=O)Nc1cc(OC(=O)c2ccco2)cc(OC(=O)c2ccco2)c1	1.93% (inactive)
C/C(=N/NC(=O)Cc1cc(=O)[nH][nH]1)c1ccc([N+](=O)[O-])cc1	-1.21% (inactive)
CCOc1cc(C2C(C#N)=C(N)Oc3n[nH]c(-c4ccccc4)c32)ccc1O (stereo not given)	4.87% (inactive)
O=C(Cc1cc(=O)[nH][nH]1)N/N=C/c1cccc2ccccc12	0.57% (inactive)
Cc1cc(-c2[nH]nc3c2C(c2ccsc2)C(C#N)=C(N)O3)c(C)s1 (stereo not given)	3.11% (inactive)
Cc1ccc(SCc2[nH]nc3c2C2(CCSCC2)C(C#N)=C(N)O3)cc1	6.38% (inactive)
CCOC(=O)C/C(C)=N/NC(=O)COc1ccccc1C	2.99% (inactive)
O=C(CCCN1C(=O)/C(=C/c2cccs2)SC1=S)Nc1ccc(O)cc1	21.9% (inactive)
O=C(Cc1cc(=O)[nH][nH]1)N/N=C/C(Cl)=C/c1ccccc1	6.66% (inactive)
CC(/C=N/NC(=O)Cc1cc(=O)[nH][nH]1)=C\c1ccccc1	2.34% (inactive)
Cc1nn(C)c(C)c1C1C(C#N)=C(N)Oc2n[nH]c(C)c21 (stereo not given)	2.21% (inactive)
Cc1cc(-c2[nH]nc3c2C(c2ccc(Cl)cc2)C(C#N)=C(N)O3)c(C)s1 (stereo not given)	8.76% (inactive)
